Test results from PubChem BioAssay AID2060898 (Molecular Pharmacology Branch, DTP, NCI, 2025).
pIC50: −log10 of the molar value. Each block holds one compound with its values, some of them ahead of it.

Test system: 616215-338-R-J1-PDC complex spheroid viability
Assay: Anticancer human tumor 616215-338-R-J1-PDC patient-derived colon adenocarcinoma cell line growth inhibition [RAS]
Settings: for pIC50: curve of first compound; for viability, T/C: stronger effect = lower value
How it was run: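 Multi-cell-type spheroids: tumor cells plus HUVEC endothelial cells and mesenchymal stem cells. RAS-pathway inhibitors were combined with targeted agents, each dosed in half-log steps down from clinical Cmax, or from 10 microM when Cmax was unknown.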

[1] = second compound 0.000949 µM, first compound 0.000949 µM
[2] = second compound 0.000949 µM, first compound 0.003 µM
[3] = second compound 0.000949 µM, first compound 0.00949 µM
[4] = second compound 0.000949 µM, first compound 0.03 µM
[5] = second compound 0.000949 µM, first compound 0.0949 µM
[6] = second compound 0.000949 µM, first compound 0.3 µM
[7] = second compound 0.003 µM, first compound 0.000949 µM
[8] = second compound 0.003 µM, first compound 0.003 µM
[9] = second compound 0.003 µM, first compound 0.00949 µM
[10] = second compound 0.003 µM, first compound 0.03 µM
[11] = second compound 0.003 µM, first compound 0.0949 µM
[12] = second compound 0.003 µM, first compound 0.3 µM
[13] = second compound 0.00949 µM, first compound 0.000949 µM
[14] = second compound 0.00949 µM, first compound 0.003 µM
[15] = second compound 0.00949 µM, first compound 0.00949 µM
[16] = second compound 0.00949 µM, first compound 0.03 µM
[17] = second compound 0.00949 µM, first compound 0.0949 µM
[18] = second compound 0.00949 µM, first compound 0.3 µM
[19] = second compound 0.03 µM, first compound 0.000949 µM
[20] = second compound 0.03 µM, first compound 0.003 µM
[21] = second compound 0.03 µM, first compound 0.00949 µM
[22] = second compound 0.03 µM, first compound 0.03 µM
[23] = second compound 0.03 µM, first compound 0.0949 µM
[24] = second compound 0.03 µM, first compound 0.3 µM
[25] = second compound 0.0949 µM, first compound 0.000949 µM
[26] = second compound 0.0949 µM, first compound 0.003 µM
[27] = second compound 0.0949 µM, first compound 0.00949 µM
[28] = second compound 0.0949 µM, first compound 0.03 µM
[29] = second compound 0.0949 µM, first compound 0.0949 µM
[30] = second compound 0.0949 µM, first compound 0.3 µM
[31] = second compound 0.3 µM, first compound 0.000949 µM
[32] = second compound 0.3 µM, first compound 0.003 µM
[33] = second compound 0.3 µM, first compound 0.00949 µM
[34] = second compound 0.3 µM, first compound 0.03 µM
[35] = second compound 0.3 µM, first compound 0.0949 µM
[36] = second compound 0.3 µM, first compound 0.3 µM
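Also: spheroids exposed to agents for seven days before viability readout.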
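For viability, T/C in this document: 100% = DMSO vehicle control viability.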

- pIC50 (second compound 0.000949 µM): < 6.00
- pIC50 (second compound 0.003 µM): < 6.00
- pIC50 (second compound 0.00949 µM): < 6.00
- pIC50 (second compound 0.03 µM): < 6.00
- pIC50 (second compound 0.0949 µM): < 6.00
- pIC50 (second compound 0.3 µM): < 6.00
Structure (SMILES): C=CC(=O)N1CCN(c2nc(OCC3CCCN3C)nc3c(F)c(-c4nc(N)cc(C)c4C(F)(F)F)c(Cl)cc23)C(C)C1 (stereo unspecified) + CCn1c(-c2cccnc2C(C)OC)c2c3cc(ccc31)N1CCOC(CC(NC(=O)C(C(C)C)N(C)C(=O)C3(F)CCN(C(=O)C#CC(C)(C)N(C)C)CC3)C(=O)N3CCCC(N3)C(=O)OCC(C)(C)C2)C1
- viability, T/C (second compound 0.000949 µM, first compound 0.00316 µM): 106%
- viability, T/C (second compound 0.000949 µM, first compound 0.01 µM): 100%
- viability, T/C (second compound 0.000949 µM, first compound 0.0316 µM): 106%
- viability, T/C (second compound 0.000949 µM, first compound 0.1 µM): 108%
- viability, T/C (second compound 0.000949 µM, first compound 0.316 µM): 115%
- viability, T/C (second compound 0.000949 µM, first compound 1 µM): 103%
- viability, T/C (second compound 0.003 µM, first compound 0.00316 µM): 103%
- viability, T/C (second compound 0.003 µM, first compound 0.01 µM): 114%
- viability, T/C (second compound 0.003 µM, first compound 0.0316 µM): 100%
- viability, T/C (second compound 0.003 µM, first compound 0.1 µM): 111%
- viability, T/C (second compound 0.003 µM, first compound 0.316 µM): 116%
- viability, T/C (second compound 0.003 µM, first compound 1 µM): 101%
- viability, T/C (second compound 0.00949 µM, first compound 0.00316 µM): 106%
- viability, T/C (second compound 0.00949 µM, first compound 0.01 µM): 101%
- viability, T/C (second compound 0.00949 µM, first compound 0.0316 µM): 106%
- viability, T/C (second compound 0.00949 µM, first compound 0.1 µM): 104%
- viability, T/C (second compound 0.00949 µM, first compound 0.316 µM): 106%
- viability, T/C (second compound 0.00949 µM, first compound 1 µM): 100%
- viability, T/C (second compound 0.03 µM, first compound 0.00316 µM): 118%
- viability, T/C (second compound 0.03 µM, first compound 0.01 µM): 110%
- viability, T/C (second compound 0.03 µM, first compound 0.0316 µM): 105%
- viability, T/C (second compound 0.03 µM, first compound 0.1 µM): 115%
- viability, T/C (second compound 0.03 µM, first compound 0.316 µM): 101%
- viability, T/C (second compound 0.03 µM, first compound 1 µM): 98.6%
- viability, T/C (second compound 0.0949 µM, first compound 0.00316 µM): 135%
- viability, T/C (second compound 0.0949 µM, first compound 0.01 µM): 113%
- viability, T/C (second compound 0.0949 µM, first compound 0.0316 µM): 109%
- viability, T/C (second compound 0.0949 µM, first compound 0.1 µM): 127%
- viability, T/C (second compound 0.0949 µM, first compound 0.316 µM): 126%
- viability, T/C (second compound 0.0949 µM, first compound 1 µM): 116%
- viability, T/C (second compound 0.3 µM, first compound 0.00316 µM): 117%
- viability, T/C (second compound 0.3 µM, first compound 0.01 µM): 108%
- viability, T/C (second compound 0.3 µM, first compound 0.0316 µM): 107%
- viability, T/C (second compound 0.3 µM, first compound 0.1 µM): 112%
- viability, T/C (second compound 0.3 µM, first compound 0.316 µM): 113%
- viability, T/C (second compound 0.3 µM, first compound 1 µM): 107%

- pIC50 (second compound 0.000949 µM): 7.80
- pIC50 (second compound 0.003 µM): 7.82
- pIC50 (second compound 0.00949 µM): 7.86
- pIC50 (second compound 0.03 µM): 7.88
- pIC50 (second compound 0.0949 µM): 8.03
- pIC50 (second compound 0.3 µM): 8.08
Structure (SMILES): CC1(C)CCC(Nc2ncc(C(F)(F)F)c(-c3c[nH]c4c(P(C)(C)=O)c(C#N)ccc34)n2)CN1 (stereo unspecified) + CCn1c(-c2cccnc2C(C)OC)c2c3cc(ccc31)N1CCOC(CC(NC(=O)C(C(C)C)N(C)C(=O)C3(F)CCN(C(=O)C#CC(C)(C)N(C)C)CC3)C(=O)N3CCCC(N3)C(=O)OCC(C)(C)C2)C1
- viability, T/C [1]: 108%
- viability, T/C [2]: 107%
- viability, T/C [3]: 62.8%
- viability, T/C [4]: 34.2%
- viability, T/C [5]: 33.9%
- viability, T/C [6]: 31.9%
- viability, T/C [7]: 107%
- viability, T/C [8]: 111%
- viability, T/C [9]: 60.2%
- viability, T/C [10]: 39.3%
- viability, T/C [11]: 32.2%
- viability, T/C [12]: 35.2%
- viability, T/C [13]: 113%
- viability, T/C [14]: 103%
- viability, T/C [15]: 57%
- viability, T/C [16]: 35.7%
- viability, T/C [17]: 32.9%
- viability, T/C [18]: 36.5%
- viability, T/C [19]: 115%
- viability, T/C [20]: 117%
- viability, T/C [21]: 57%
- viability, T/C [22]: 34.6%
- viability, T/C [23]: 32.9%
- viability, T/C [24]: 32.4%
- viability, T/C [25]: 119%
- viability, T/C [26]: 93%
- viability, T/C [27]: 50.3%
- viability, T/C [28]: 27.6%
- viability, T/C [29]: 31.2%
- viability, T/C [30]: 27.1%
- viability, T/C [31]: 95.1%
- viability, T/C [32]: 95.3%
- viability, T/C [33]: 44.8%
- viability, T/C [34]: 28.8%
- viability, T/C [35]: 28.4%
- viability, T/C [36]: 34.6%

- pIC50 (second compound 0.000949 µM): 7.82
- pIC50 (second compound 0.003 µM): 7.86
- pIC50 (second compound 0.00949 µM): 7.85
- pIC50 (second compound 0.03 µM): 7.79
- pIC50 (second compound 0.0949 µM): 8.09
- pIC50 (second compound 0.3 µM): 8.04
Structure (SMILES): CCc1c2c(nc3ccc(O)cc13)-c1cc3c(c(=O)n1C2)COC(=O)[C@]3(O)CC + CCn1c(-c2cccnc2C(C)OC)c2c3cc(ccc31)N1CCOC(CC(NC(=O)C(C(C)C)N(C)C(=O)C3(F)CCN(C(=O)C#CC(C)(C)N(C)C)CC3)C(=O)N3CCCC(N3)C(=O)OCC(C)(C)C2)C1
- viability, T/C [1]: 105%
- viability, T/C [2]: 101%
- viability, T/C [3]: 56.8%
- viability, T/C [4]: 39%
- viability, T/C [5]: 32.6%
- viability, T/C [6]: 18.1%
- viability, T/C [7]: 97.9%
- viability, T/C [8]: 99%
- viability, T/C [9]: 56%
- viability, T/C [10]: 35.8%
- viability, T/C [11]: 30.6%
- viability, T/C [12]: 16.6%
- viability, T/C [13]: 107%
- viability, T/C [14]: 98.4%
- viability, T/C [15]: 58.1%
- viability, T/C [16]: 32%
- viability, T/C [17]: 30.1%
- viability, T/C [18]: 15.1%
- viability, T/C [19]: 111%
- viability, T/C [20]: 110%
- viability, T/C [21]: 58.7%
- viability, T/C [22]: 40.9%
- viability, T/C [23]: 30.8%
- viability, T/C [24]: 16.4%
- viability, T/C [25]: 99.9%
- viability, T/C [26]: 97.6%
- viability, T/C [27]: 41.9%
- viability, T/C [28]: 33.4%
- viability, T/C [29]: 30.2%
- viability, T/C [30]: 16.6%
- viability, T/C [31]: 103%
- viability, T/C [32]: 69%
- viability, T/C [33]: 48.1%
- viability, T/C [34]: 37.1%
- viability, T/C [35]: 26%
- viability, T/C [36]: 14.3%
